According to patent US8188151B2, “Methods for treating diabetes” (Omega Bio-Pharma (I.P.3) Limited, priority 2003, dated 2012):
Counter-ions that a name gives are not always drawn.

What was measured:
adiponectin = assay: Adiponectin level in GK diabetic rats (Example 2); type: in vivo, rat; settings: for Adiponectin: Mean ± STD, DC 22.5 mg/kg BW, Metformin 34 mg/kg BW
Method: The 36 GK rats were divided into 4 groups based on body weight (BW) and plasma glucose level. Group 1 (control, n=10) was treated with saline by gavage (2 ml/rat) Group 2 (DC, n=6) was treated with cysteamine hydrochloride by gavage (22.5 mg/kg BW in 2 ml tap water); Group 3 (Metformin, Met, n=10) was treated with Metformin by gavage (34 mg/kg BW in 2 ml tap water); Group 4 (Met+DC, n=10) was treated with Metformin 34 mg/kg BW/day in 2 ml tap water for the first 10 days and then was treated with both cysteamine hydrochloride 22.5 mg/kg BW plus Metformin 34 mg/kg BW in 2 ml tap water for the second 10 days. All animals were treated at 10:00 for 20 days.
(§1) The four groups of animals were kept in the same room (temp 23±3° C., relative humidity 65±1%) in different cages with wire mesh bottoms to reduce coprophagia throughout the experiment. The rats were subjected to fasting overnight from 10:00 pm to 09:30 of the following day before being subjected to a glucose tolerance test. The rats were treated with glucose 2 g/kg BW in 2 ml tap water at 09:30 for the glucose tolerance test and the blood was collected from the tail vein at 0.5, 1, 2, and 3 hours after glucose injection. Plasma glucose concentrations were determined by Glucotrendr2 equipment (Roche Diagnostics, Basel, Switzerland). Plasma insulin concentrations were determined by radioimmunoassay (Insulin RIA Kit, NO:0410, purchased from Shanghai Radioimmunoassay Research Institution). […] The “p” value is the comparison with the control group.

Insulin = assay: Plasma insulin by radioimmunoassay in GK diabetic rats (Example 2); type: in vivo, rat; settings: for Fasting Insulin: Mean ± STD, DC 22.5 mg/kg BW, Metformin 34 mg/kg BW
Method: (§2) The 36 GK rats were divided into 4 groups based on body weight (BW) and plasma glucose level. […] All animals were treated at 10:00 for 20 days. […] Plasma glucose concentrations were determined by Glucotrendr2 equipment (Roche Diagnostics, Basel, Switzerland). Plasma insulin concentrations were determined by radioimmunoassay (Insulin RIA Kit, NO:0410, purchased from Shanghai Radioimmunoassay Research Institution). The effects on plasma glucose level are shown in Table 4, the effects on plasma insulin and adiponectin levels are shown in Table 5, and the effects on different tissues are shown in Table 6. The “p” value is the comparison with the control group.

diabetic patients = assay: Open-label randomized trial in patients with diabetes type II (Example 3); type: in vivo, human
Method: The cysteamine alone (DC) group was treated with 540 mg/day of cysteamine hydrochloride.

GK diabetic rats = assay: Glucose tolerance test in GK diabetic rats (Example 2); type: in vivo, rat; settings: for glucose levels in glucose tolerance test (in words): GK diabetic rats; for Glucose tolerance test, plasma glucose, Fasting / Glucose tolerance test, plasma glucose, 0.5 hour / Glucose tolerance test, plasma glucose, 1 hour / Glucose tolerance test, plasma glucose, 2 hours / Glucose tolerance test, plasma glucose, 3 hours: Mean ± STD, DC 22.5 mg/kg BW, Metformin 34 mg/kg BW by gavage; for Glucose tolerance test, plasma glucose, Fasting: 20 days (combination in second 10 days); for Glucose tolerance test, plasma glucose, 0.5 hour / Glucose tolerance test, plasma glucose, 1 hour / Glucose tolerance test, plasma glucose, 2 hours / Glucose tolerance test, plasma glucose, 3 hours: after glucose 2 g/kg BW, 20 days
Method: Food and water were provided ad libitum.
The 36 GK rats were divided into 4 groups based on body weight (BW) and plasma glucose level. […] All animals were treated at 10:00 for 20 days.
as §1

[1] = system: glucose transporter (glut4); assay: Glucose transporter (glut4) expression in tissues of GK diabetic rats (Example 2); type: in vivo, rat; settings: for expression of total glut4 in liver, muscles, adipocytes (in words): GK rats; for glut4 expression, adipocyte, fold changes compared with control level / glut4 expression, liver, fold changes compared with control level / glut4 expression, muscle, fold changes compared with control level: Mean ± STD, GK diabetic rats
Method: as §2

[2] = system: Goto-Kakizaki Wistar rats (GK rats); assay: Oral glucose tolerance test and starving plasma glucose in GK rats (Example 1); type: in vivo, rat
Method: Nineteen male Goto-Kakizaki Wistar rats (GK rats) with weights of 300±20 g were kept in steel cages, 3-4 rats per cage. The cages were changed every two days. Indoor temperature and relative humidity was kept at 23±3° C. and 65±1% respectively. Feed and drinking water was provided. GK rats were permitted a one-month period for adaptation.
One day prior to experimentation, at 17:00, all of the feed was removed from all groups, but not the drinking water. On the second day, at 09:30, starving plasma glucose was measured for all GK rats. At 10:00, glucose tolerance test (2 g/kg BW) was performed and the plasma glucose level was measured as well for all GK rats. On the third day, the GK rats of the control group were orally administered a saline solution (2 ml/rat) and the GK rats in treatment I and II groups were orally administered a solution of Metformin (17 mg/kg body weight (BW), 2 ml once pre day at 09:30). This regimen was performed for the following several days. On the ninth day, starving plasma glucose was measured and oral glucose tolerance test was performed again for all GK rats in all groups.
On the tenth day, the regimen for the GK rats in the treatment II group was changed to an oral administration of Metformin with cysteamine hydrochloride (Metformin 17 mg/kg BW, cysteamine hydrochloride 15 mg/kg BW) for the following 6 days, while the regimen for the control group and the treatment I group remained unchanged. This regimen was performed for six days.
Six days following the change in regimen, starving plasma glucose was measured and glucose tolerance tests were performed, and blood and tissue samples were collected (liver, duodenum, pancreas gland, fat, and muscle) for all GK rats in all groups. Blood samples were stored at 4° C. for three hours and centrifuged for ten minutes at 3500 rpm. Then, the serum was collected and stored at −20° C. Tissue samples were placed in liquid nitrogen once collected and then stored in −80° C.
The glucose tolerance tests that were performed included the steps of starving the GK rats overnight. Next day at 09:30, starving plasma glucose was measured. At 10:00, oral administration of a glucose solution (2 g/kg BW) was performed. Blood samples were collected via tail vein at 0, 0.5, 1, 2, and 3 hours and then performed with the plasma glucose testing equipment.

[3] = cysteamine hydrochloride 540 mg/day, two months
[4] = pre-treatment minus post-treatment
[5] = late-phase, Metformin 17 mg/kg BW, cysteamine hydrochloride 15 mg/kg BW oral for 6 days
[6] = mid-phase, Treatment I group, 6 days oral Metformin 17 mg/kg BW, glucose 2 g/kg BW
[7] = mid-phase, Treatment II group (Metformin 17 mg/kg BW only, before cysteamine hydrochloride was added)

NCCS [cysteamine hydrochloride]
adiponectin (in words) (adiponectin): significantly increased
Adiponectin (adiponectin): 4318 ± 590 ng/mL
insulin levels (in words) (Insulin): did not affect
Fasting Insulin (Insulin): 22.46 ± 2.65 IU/L
C peptide (CP) (in words) (diabetic patients): decreases significantly
HOMA (Homeostasis Model Assessment) (in words) (diabetic patients): decreases significantly
blood uric acid (UA) levels (in words) (diabetic patients): decreases significantly
fasting insulin (FINS) (in words) (diabetic patients): decreases significantly
insulin-like growth factor 1 (IGF1) (in words) (diabetic patients): decreases significantly
microalbuminuria (in words) (diabetic patients): obvious but not statistically significantly
24 h Microalbuminuria, Post-treatment (diabetic patients; [3]): 30.97 ± 25.12
FBS (fasting blood sugar), Post-treatment (diabetic patients; [3]): 8.21 ± 2.43
FCP (C peptide), Post-treatment (diabetic patients; [3]): 557 ± 119
FINS (fasting insulin), Post-treatment (diabetic patients; [3]): 13.25 ± 6.36
HOMA (Homeostasis Model Assessment), Post-treatment (diabetic patients; [3]): 5.43 ± 3.19
IGF, Post-treatment (diabetic patients; [3]): 44.37 ± 7.28
UA (blood uric acid), Post-treatment (diabetic patients; [3]): 359 ± 60.16
24 h Microalbuminuria, Paired Difference (diabetic patients; [4]): 11.77 ± 40.73
FBS, Paired Difference (diabetic patients; [4]): −0.69 ± 2.11
FCP, Paired Difference (diabetic patients; [4]): 182 ± 164
FINS, Paired Difference (diabetic patients; [4]): 22.14 ± 19.39
HOMA, Paired Difference (diabetic patients; [4]): 6.51 ± 4.94
IGF, Paired Difference (diabetic patients; [4]): 4.99 ± 5.12
UA, Paired Difference (diabetic patients; [4]): 29.5 ± 37.87
glucose levels in glucose tolerance test (in words) (GK diabetic rats): did not affect
Glucose tolerance test, plasma glucose, Fasting (GK diabetic rats): 5.80 ± 0.36 mmol/L
Glucose tolerance test, plasma glucose, 0.5 hour (GK diabetic rats): 16.68 ± 1.1 mmol/L
Glucose tolerance test, plasma glucose, 1 hour (GK diabetic rats): 15.68 ± 0.8 mmol/L
Glucose tolerance test, plasma glucose, 2 hours (GK diabetic rats): 11.00 ± 0.8 mmol/L
Glucose tolerance test, plasma glucose, 3 hours (GK diabetic rats): 8.33 ± 0.64 mmol/L
expression of total glut4 in liver, muscles, adipocytes (in words) [1]: significantly increase
glut4 expression, adipocyte, fold changes compared with control level [1]: 2.7 ± 1.16 fold
glut4 expression, liver, fold changes compared with control level [1]: 3.77 ± 3.15 fold
glut4 expression, muscle, fold changes compared with control level [1]: 1.5 ± 0.74 fold

CN(C)C(=N)N=C(N)N [Metformin]
adiponectin (in words) (adiponectin): not
Adiponectin (adiponectin): 3917 ± 416 ng/mL
insulin levels (in words) (Insulin): decreased, but not statistically significant
Fasting Insulin (Insulin): 18.75 ± 3.98 IU/L
duodenal plasma glucose levels and insulin resistance (in words) ([2]; GK rats, oral administration): to some extent, lowers
Glucose tolerance test, plasma glucose, 0.5 hour [2, 5]: 12.98
Glucose tolerance test, plasma glucose, 1 hour [2, 5]: 13.42
Glucose tolerance test, plasma glucose, 2 hours [2, 5]: 8.6
Glucose tolerance test, plasma glucose, 3 hours [2, 5]: 6.67
Glucose tolerance test, plasma glucose, Starving [2, 5]: 4.75
Glucose tolerance test, plasma glucose, Starving ([2]; mid-phase, Treatment I group, 6 days oral Metformin 17 mg/kg BW): 4.98
Glucose tolerance test, plasma glucose, 0.5 hour [2, 6]: 15.68
Glucose tolerance test, plasma glucose, 1 hour [2, 6]: 15.93
Glucose tolerance test, plasma glucose, 2 hours [2, 6]: 10.55
Glucose tolerance test, plasma glucose, 3 hours [2, 6]: 8.5
Glucose tolerance test, plasma glucose, 0.5 hour [2, 7]: 15.65
Glucose tolerance test, plasma glucose, 1 hour [2, 7]: 15.8
Glucose tolerance test, plasma glucose, 2 hours [2, 7]: 10.55
Glucose tolerance test, plasma glucose, 3 hours [2, 7]: 8.37
Glucose tolerance test, plasma glucose, Starving [2, 7]: 5.03
insulin-like growth factor 1 (IGF1) (in words) (diabetic patients): decrease
glucose levels in glucose tolerance test (in words) (GK diabetic rats): statistically significantly different
Glucose tolerance test, plasma glucose, Fasting (GK diabetic rats): 5.53 ± 0.53 mmol/L
Glucose tolerance test, plasma glucose, 0.5 hour (GK diabetic rats): 15.24 ± 1.34 mmol/L
Glucose tolerance test, plasma glucose, 1 hour (GK diabetic rats): 13.98 ± 0.95 mmol/L
Glucose tolerance test, plasma glucose, 2 hours (GK diabetic rats): 9.62 ± 0.83 mmol/L
Glucose tolerance test, plasma glucose, 3 hours (GK diabetic rats): 7.71 ± 1.37 mmol/L
expression of total glut4 in liver, muscles, adipocytes (in words) [1]: increased, but not significantly
glut4 expression, adipocyte, fold changes compared with control level [1]: 2.14 ± 1.39 fold
glut4 expression, liver, fold changes compared with control level [1]: 2.43 ± 1.85 fold
glut4 expression, muscle, fold changes compared with control level [1]: 1.38 ± 0.67 fold
